# Measurements as given in ChEMBL document CHEMBL3763124, “N-Benzylbenzamides: A Novel Merged Scaffold for Orally Available Dual Soluble Epoxide Hydrolase/Peroxisome Proliferator-Activated Receptor γ Modulators” (J Med Chem, 2016).
# Activity calls are given as the source filed them. The calls are words filed in the database; no cut-off is given here.
# How the values were obtained:
# HepG2 = experiment: Cytotoxicity against human HepG2 cells assessed as cell viability up to 30 uM after 48 hrs by WST-1 assay; format: cell-based; details: hepg2, 48 h
# [1] = Apparent volume of distribution during terminal phase in RjOrl:Swiss (CD-1) mouse plasma at 30 mg/kg, po; format: ADME, organism-based; details: read-out: Vz/F
# Mus musculus [2] = experiment: Upregulation of LXRalpha regulated ABCA1 expression in C57BL/6JRj mouse liver at 30 mg/kg/day, po administered with drinking water measured after 2 weeks by qPCR method; format: functional, organism-based
# Mus musculus [3] = experiment: Upregulation of PPARgamma gene expression in C57BL/6JRj mouse liver at 30 mg/kg/day, po administered with drinking water measured after 2 weeks by qPCR method; format: functional, organism-based
# [4] = target: T1, Peroxisome proliferator-activated receptor delta (Homo sapiens, UniProt Q03181); experiment: Transactivation of human PPARdelta expressed in African green monkey COS7 cells incubated overnight by dual-glo luciferase reporter gene assay; format: cell-based; details: cos-7
# T1 sequence (Q03181 whole entry): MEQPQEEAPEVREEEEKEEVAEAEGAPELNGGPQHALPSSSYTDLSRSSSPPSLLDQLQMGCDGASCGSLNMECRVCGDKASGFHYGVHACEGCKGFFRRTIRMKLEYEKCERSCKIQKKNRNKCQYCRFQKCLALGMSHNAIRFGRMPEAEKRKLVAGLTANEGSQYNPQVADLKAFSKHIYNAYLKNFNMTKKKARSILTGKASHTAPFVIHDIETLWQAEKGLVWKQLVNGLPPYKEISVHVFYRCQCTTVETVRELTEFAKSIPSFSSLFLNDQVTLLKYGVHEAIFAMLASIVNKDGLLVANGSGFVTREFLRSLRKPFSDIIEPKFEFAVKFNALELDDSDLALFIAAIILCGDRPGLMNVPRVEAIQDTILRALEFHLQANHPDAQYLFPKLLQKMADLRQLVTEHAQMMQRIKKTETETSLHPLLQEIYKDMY
# [5] = target: T2, Peroxisome proliferator-activated receptor alpha (Homo sapiens) (UniProt Q07869); experiment: Transactivation of human PPARalpha expressed in African green monkey COS7 cells at 10 uM incubated overnight by dual-glo luciferase reporter assay; format: cell-based; details: COS-7
# T2 sequence (whole entry): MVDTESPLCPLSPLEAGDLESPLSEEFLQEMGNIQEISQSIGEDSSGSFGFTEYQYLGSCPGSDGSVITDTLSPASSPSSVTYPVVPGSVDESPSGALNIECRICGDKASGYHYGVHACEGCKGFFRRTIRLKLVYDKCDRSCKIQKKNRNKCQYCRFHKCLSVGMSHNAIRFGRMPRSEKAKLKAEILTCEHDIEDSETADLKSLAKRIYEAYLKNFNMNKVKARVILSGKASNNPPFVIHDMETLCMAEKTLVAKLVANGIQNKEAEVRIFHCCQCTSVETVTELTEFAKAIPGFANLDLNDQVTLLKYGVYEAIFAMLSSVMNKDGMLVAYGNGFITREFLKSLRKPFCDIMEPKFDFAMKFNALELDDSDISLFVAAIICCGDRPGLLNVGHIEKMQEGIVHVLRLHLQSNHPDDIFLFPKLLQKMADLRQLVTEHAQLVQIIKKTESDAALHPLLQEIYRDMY
# [6] = Apparent oral clearance in RjOrl:Swiss (CD-1) mouse plasma at 30 mg/kg; format: ADME, organism-based
# Mus musculus [7] = experiment: In vivo transactivation of PPARgamma in C57BL/6JRj mouse assessed as increase in LXRalpha expression in liver at 30 mg/kg/day, po administered with drinking water measured after 2 weeks by qPCR method; format: functional, organism-based
# [8] = target: Free fatty acid receptor 1 (Homo sapiens) (UniProt O14842); experiment: Partial agonist activity at human free fatty acid receptor 1 expressed in HEK293 cells assessed as inositol phosphate 1 accumulation incubated for 30 mins; format: functional, cell-based
# Chain of Free fatty acid receptor 1 (Homo sapiens) (O14842 whole entry): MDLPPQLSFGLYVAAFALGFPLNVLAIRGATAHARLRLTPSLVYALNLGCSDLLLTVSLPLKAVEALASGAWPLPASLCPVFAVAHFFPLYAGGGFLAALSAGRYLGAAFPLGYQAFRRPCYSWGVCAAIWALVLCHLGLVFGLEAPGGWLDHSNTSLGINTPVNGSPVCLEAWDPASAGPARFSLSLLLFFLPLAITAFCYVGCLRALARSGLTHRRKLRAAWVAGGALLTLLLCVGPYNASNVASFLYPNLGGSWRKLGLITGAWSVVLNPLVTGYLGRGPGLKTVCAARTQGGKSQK
# [9] = target: Free fatty acid receptor 1 (Mus musculus) (UniProt Q76JU9); experiment: Partial agonist activity at mouse free fatty acid receptor 1 expressed in HEK293 cells assessed as inositol phosphate 1 accumulation incubated for 30 mins; format: functional, cell-based
# Chain of Free fatty acid receptor 1 (Mus musculus) (Q76JU9 whole entry): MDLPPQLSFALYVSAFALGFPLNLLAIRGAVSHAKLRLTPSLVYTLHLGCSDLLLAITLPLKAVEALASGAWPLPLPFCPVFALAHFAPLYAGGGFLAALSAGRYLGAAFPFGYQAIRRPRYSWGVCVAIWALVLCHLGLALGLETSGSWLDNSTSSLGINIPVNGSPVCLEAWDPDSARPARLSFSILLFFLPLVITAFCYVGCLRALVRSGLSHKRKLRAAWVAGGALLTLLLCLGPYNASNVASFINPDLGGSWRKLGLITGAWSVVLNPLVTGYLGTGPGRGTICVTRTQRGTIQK
# Mus musculus [10] = experiment: In vivo transactivation of PPARgamma in C57BL/6JRj mouse assessed as increase in CD36 expression in liver at 30 mg/kg/day, po administered with drinking water measured after 2 weeks by qPCR method; format: functional, organism-based
# [11] = AUC (0 to infinity) in RjOrl:Swiss (CD-1) mouse plasma at 30 mg/kg, po; format: ADME, organism-based; parameters: dose 30 mg/kg, time infinity, route oral
# Mus musculus [12] = experiment: Upregulation of LXRalpha regulated ApoE expression in C57BL/6JRj mouse liver at 30 mg/kg/day, po administered with drinking water measured after 2 weeks by qPCR method; format: functional, organism-based
# Mus musculus [13] = experiment: Upregulation of PPARalpha gene expression in C57BL/6JRj mouse liver at 30 mg/kg/day, po administered with drinking water after 2 weeks by qPCR method; format: functional, organism-based
# [14] = Solubility of the compound in water by microplate reader analysis; format: physicochemical
# Mus musculus [15] = experiment: In vivo transactivation of PPARgamma in C57BL/6JRj mouse assessed as increase in PGC-1alpha expression in liver at 30 mg/kg/day, po administered with drinking water measured after 2 weeks by qPCR method; format: functional, organism-based
# [16] = Cmax in RjOrl:Swiss (CD-1) mouse plasma at 30 mg/kg, po; format: ADME, organism-based; parameters: dose 30 mg/kg, route oral
# Mus musculus [17] = experiment: In vivo transactivation of PPARgamma in C57BL/6JRj mouse assessed as increase in sEH expression in liver at 30 mg/kg/day, po administered with drinking water after 2 weeks by qPCR method; format: functional, organism-based
# [18] = Drug level in supernatant of African green monkey COS7 cells treated with Ethyl 2-Ethyl 3-[4-(N-(4-methoxy(2-trifluoromethyl)benzyl)-benzamide)]propanoate at 10 uM after 12 hrs by HPLC analysis; format: ADME, cell-based; details: chlorocebus aethiops, cos-7, 12 h
smiles,measurement,setting,value
CCC(Cc1ccc(C(=O)NCc2ccc(OC)cc2C(F)(F)F)cc1)C(=O)O (centres undefined),Activity,HepG2,Non-toxic
same,Vd/F,[1],2 L/kg
same,Activity,Mus musculus [2],inactive
same,Activity,Mus musculus [3],Active
same,EC50,[4],Not Active
same,Activity,[5],29%
same,CL/F,[6],0.3 L/h/kg
same,Activity,Mus musculus [7],Active
same,Activity,[8],Active
same,Activity,[9],Active
same,Activity,Mus musculus [10],Active
same,AUC(0-inf),[11],94.4 µg·h/mL
same,Activity,Mus musculus [12],inactive
same,Activity,Mus musculus [13],Active
same,solubility,[14],375 µM
same,Activity,Mus musculus [15],Active
same,Cmax,[16],29.1 µg/mL
same,Activity,Mus musculus [17],Active
same,Drug metabolism,[18],metabolite_detected
